# Key:
# bkd−/− mutant zebrafish = assay: rescue of 2:1 AV block phenotype in breakdance (bkd−/−) mutant zebrafish; assay type: in vivo; parameters: percent rescue at peak concentration relative to morpholino: dose or concentration left out as unconfirmed
# Source text: The zebrafish breakdance mutant (Bkd−/−) fish is a unique model of action potential prolongation due to a mutation in the Zerg (zebrafish HERG) channel, that recapitulates human LQT2 syndrome and has been used in high throughput screens to identify molecules that may shorten the action potential duration. The phenotypic manifestation of the prolonged QT interval in the Bkd −/− fish is the presence of functional 2:1 AV block, and previous screens have taken advantage of this easily quantifiable phenotype to screen for ‘rescue’ from 2:1 AV block.
# Bkd^−/− (Breakdance) adults were crossed, and the resultant embryos were reared in E3 buffer at 25° C. 24 hours post-fertilization (hpf) animals were dechorionated with pronase and plated per well in 96-well plates in a final volume of 200 μL. At 48 hpf, compounds were added to the appropriate concentration. Zebrafish were visually scored at 72 hpf for presence or absence of 2:1 AV block. For the dose response curve, the fish at 48 hpf were treated for 24 hours at the desired concentration (from 20 mM stock in DMSO) and scored for suppression of breakdance phenotype. Genetic inhibition of SGK1 was achieved either by injection of 500 μM of SGK1 morpholino or SGK1-dominant negative mRNA at the 1-2 cell stage and the fish were scored for rescue of 2:1 AV block at the 99 hpf stage.
# SGK1 = biological target: T1, SGK1 (Homo sapiens, UniProt O00141, S422D); assay: cell-based cardiomyocyte assay: SGK1-CA driven phosphorylation of GSK3β in NRVMs (immunoblot); parameters: species or system rat
# T1 construct: expressed in transfected cells; host or cells: neonatal rat ventricular myocytes (NRVMs) infected with adenovirus Ad.SGK1-CA
# T1 sequence (O00141 1-431 S422D): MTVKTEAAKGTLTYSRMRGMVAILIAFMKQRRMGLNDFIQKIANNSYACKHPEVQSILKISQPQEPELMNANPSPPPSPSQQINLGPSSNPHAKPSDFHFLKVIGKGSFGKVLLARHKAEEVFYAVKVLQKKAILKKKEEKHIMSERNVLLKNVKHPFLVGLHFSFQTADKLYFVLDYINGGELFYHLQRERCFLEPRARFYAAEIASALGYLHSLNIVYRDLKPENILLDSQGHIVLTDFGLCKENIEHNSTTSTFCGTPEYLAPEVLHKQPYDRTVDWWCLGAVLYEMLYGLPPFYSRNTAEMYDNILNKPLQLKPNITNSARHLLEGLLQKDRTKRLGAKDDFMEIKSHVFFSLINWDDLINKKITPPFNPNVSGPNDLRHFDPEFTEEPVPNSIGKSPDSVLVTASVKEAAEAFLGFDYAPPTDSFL
# Protocol: (§1) These inhibitors were further characterized using a cell-based cardiomyocyte system (FIG. 3). 2×10^6 neonatal rat ventricular myocytes (NRVMs) were plated on 60 mm plates in DMEM containing 10% horse serum, 5% fetal bovine serum, 1% L-glutamine and 1% penstrep antibiotic. 24 h after plating media was changed to DMEM containing 1% L-glutamine, and 24 h following cells were infected with SGK-CA virus and treated with various concentrations of SGK inhibitors 5377051 (Compound 1A) and 6410136 (Chembridge compound catalogue #6410136). 12 h after infection and treatment, the media was changed and cells were treated again. 12 h following the second treatment NRVMs were harvested and lysed in 300 uL of cell lysis buffer (Cell Signaling) containing protease and phosphatase inhibitors and PMSF at 4 degrees C. for 1 h with shaking. Lysates were subjected to immunoblotting with an antibody against phospho […]-glycogen synthase kinase beta (p-GSK3β), a well-established SGK1 substrate. For gel electrophoresis, 50 ug of protein per well was loaded, transferred to nitrocellulose membrane, blocked, and incubated with GAPDH and P-GSK3β primary antibodies. As expected, Ad.
# Akt = assay: cardiomyocyte assay: Akt (myr-Akt) mediated phosphorylation of GSK3β in NRVMs (immunoblot); assay type: cell-based, rat; details: NRVMs infected with Ad.myr-Akt, FIG. 8B, FIG. 3
# Protocol: as §1, with “As expected, Ad.” left out
# Because SGK1 and Akt are structurally related but have very different roles in the heart, with Akt deemed to be cardioprotective against stress, the inhibitors were assessed to determine if they have an off-target effect on Akt in CMs. […]
structure (smiles),measurement,setting,value
O=C1NC(=S)NC(=O)C1=Cc1ccccc1OCc1ccc(Cl)cc1 [Compound 1A],percent rescue of 2:1 AV block phenotype,"bkd−/− mutant zebrafish; bkd−/− fish, compound at 45 μM",58%
same,toxicity,"bkd−/− mutant zebrafish; bkd−/− fish, concentrations up to 50 μM",minimal and stable toxicity
same,percent rescue at peak concentration relative to morpholino,"bkd−/− mutant zebrafish; bkd−/− zebrafish, FIG. 2",comparable to rescue by morpholino
same,toxicity in the dosages tested,"bkd−/− mutant zebrafish; bkd−/− zebrafish, FIG. 2",no significant increase in toxicity
same,effect on Ad.SGK1-CA induced increase in p-GSK3β,"SGK1; NRVMs infected with SGK1-CA virus, FIG. 8A, FIG. 9",inhibited
same,ability to inhibit SGK1 compared with EMD 638683,"SGK1; cellular assay, 10 micromolar compounds, FIG. 8C",better or at least equivalent
same,effect on Akt-mediated phosphorylation of GSK-3β (p-GSK3β),Akt,neither 5377051 nor 6410136 caused a significant inhibition

# From patent US10456398B2, “Inhibition of SGK1 in the treatment of heart conditions” (Beth Israel Deaconess Medical Center, Inc., priority 2013, dated 2019)
